# Laboratory results: patent US5585352A, “Method of treating septic shock using thymosin-α 1” (The George Washington University Medical Center, priority 1994, dated 1996)
# System: Rats with Septic Shock
# Experiment: Survival in septic shock model in rats (peritonitis by cecal ligation and puncture)
# Assay type: in vivo, Sprague-Dawley rats
# Conditions: Table XV, rats with peritonitis, both groups got antibiotic (gentamicin sulfate, 1 mg/rat), 10 at 0 hr
# Text: Using a septic shock model in rats (Sprague-Dawley, male, 200-225 g each), the effect of thymosin α1 alone and together with antibiotics was studied. Peritonitis was induced in rats in the following way. A 1-cm incision was made into the peritoneal which exposed the cecum. A tight ligature was placed around the cecum with 4-0 suture distal to the insertion of the small bowel, forming an area of devitalized tissue while maintaining bowel continuity. A puncture wound was made with 16-gauge needle into the anti-mesenteric surface of the cecum and a small amount of fecal contents was expressed through the wound. The cecum was replaced into the peritoneal cavity, and the anterior peritoneal wall and skin were closed with surgical staples. Each animal was given a bolus of normal saline (15 ml/kg) for hydration and allowed to recover overnight.
# *gentamicin sulfate, 1 mg/rat
# **At 0 hr, 2 hr, and 4 hr post induction of peritonitis
substance,measurement,setting,value
"gentamicin sulfate [antibiotic, reference compound]","Survival of Sprague-Dawley rats, 48 hr",thymosin α1 1 mg/rat × 3,1
same,"Survival of Sprague-Dawley rats, 72 hr",thymosin α1 1 mg/rat × 3,0
same,"Survival of Sprague-Dawley rats, 24 hr","thymosin α1 1 mg/rat × 3 at 0, 2 and 4 hr post induction",1
